pIC50: −log10 of the molar value.

Usually pIC50 stands for the negative decadic logarithm of the IC50, by convention in mol/L.

For this experiment, the target named is T1, human PAR4 (Homo sapiens, UniProt Q96RI0).
T1 construct: expressed in transfected cells; host or cells: HEK293 PAR4 Clone 1.2A (BMS Arctic ID 383940)
T1 sequence (Q96RI0 18-385): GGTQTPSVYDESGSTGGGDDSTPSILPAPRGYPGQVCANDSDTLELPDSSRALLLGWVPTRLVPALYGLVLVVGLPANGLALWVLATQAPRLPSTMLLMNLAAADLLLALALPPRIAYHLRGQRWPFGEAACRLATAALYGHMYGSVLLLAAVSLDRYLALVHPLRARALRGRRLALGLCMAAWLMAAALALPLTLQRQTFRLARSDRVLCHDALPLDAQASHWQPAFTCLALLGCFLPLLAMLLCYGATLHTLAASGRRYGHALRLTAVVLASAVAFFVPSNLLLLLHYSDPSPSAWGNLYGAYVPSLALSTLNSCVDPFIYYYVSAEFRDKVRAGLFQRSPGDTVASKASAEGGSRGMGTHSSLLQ
Description: PAR4 FLIPR assay: antagonism of agonist-peptide-induced calcium mobilization in PAR4-expressing HEK293 cells. It counts as cell-based. To be noted: H-Ala-Phe(4-F)-[…]NH2-induced intracellular calcium mobilization, 11-point curves. Background: A change in cytosolic calcium serves as a functional read-out for many receptors and channels.

Turning to `COCc1cnc2c(-c3nc4c(C)cc(O)cc4s3)cc(C)cc2n1` [Example 281, 2-(2-(methoxymethyl)-7-methylquinoxalin-5-yl)-4-methylbenzo[d]thiazol-6-ol], the negative-log IC50 (pIC50) is 8.44.
For the compound `COc1cnc2c(-c3nc4c(Cl)c(F)c(OC)cc4s3)cc(C)cc2n1` [Example 282, 4-chloro-5-fluoro-6-methoxy-2-(2-methoxy-7-methylquinoxalin-5-yl)benzo[d]thiazole], the pIC50 was 8.96.
As for `COCc1cnc2c(-c3nc4c(Cl)c(F)c(OC)cc4s3)cc(C)cc2n1` [Example 283, 4-chloro-5-fluoro-6-methoxy-2-(2-(methoxymethyl)-7-methylquinoxalin-5-yl)benzo[d]thiazole], the figure is 8.72; as for `COCc1cnc2c(-c3nc4c(C)c(C)c(OC)cc4s3)cc(C)cc2n1` [Example 284, 6-methoxy-2-(2-(methoxymethyl)-7-methylquinoxalin-5-yl)-4,5-dimethylbenzo[d]thiazole], 8.23.
As for `COC(=O)COc1cc2sc(-c3cc(C)cc4nc(OC)cnc34)nc2c(C)c1F` [Example 285, methyl 2-((5-fluoro-2-(2-methoxy-7-methylquinoxalin-5-yl)-4-methylbenzo[d]thiazol-6-yl)oxy)acetate], the negative logarithm of the IC50 (pIC50) was 7.80.
For `COCc1cnc2c(-c3nc4c(C)c(F)c(OCC(=O)OC)cc4s3)cc(C)cc2n1` [Example 286, methyl 2-((5-fluoro-2-(2-(methoxymethyl)-7-methylquinoxalin-5-yl)-4-methylbenzo[d]thiazol-6-yl)oxy)acetate], the negative-log IC50 (pIC50) is 9.30.
`COC(=O)COc1cc2sc(-c3cc(C)cc4nc(OC)cnc34)nc2c(Cl)c1F` [Example 287, methyl 2-((4-chloro-5-fluoro-2-(2-methoxy-7-methylquinoxalin-5-yl)benzo[d]thiazol-6-yl)oxy)acetate]: the pIC50 was 8.07.
As to `COc1cnc2c(-c3nc4c(C)c(F)c(OCCO)cc4s3)cc(C)cc2n1` [Example 288, 2-((5-fluoro-2-(2-methoxy-7-methylquinoxalin-5-yl)-4-methylbenzo[d]thiazol-6-yl)oxy)ethanol], the negative-log IC50 (pIC50) is 8.07.
Consider `COCc1cnc2c(-c3nc4c(C)c(F)c(OCCO)cc4s3)cc(C)cc2n1` [Example 289, 2-((5-fluoro-2-(2-(methoxymethyl)-7-methylquinoxalin-5-yl)-4-methylbenzo[d]thiazol-6-yl)oxy)ethanol], for which the negative logarithm of the IC50 (pIC50) is 8.89.
With `COCc1cnc2c(-c3nc4c(C)c(F)c(O)cc4s3)cc(C)cc2n1` [Example 290, 5-fluoro-2-(2-(methoxymethyl)-7-methylquinoxalin-5-yl)-4-methylbenzo[d] thiazol-6-ol] the figure was 8.22; with `COCc1cnc2c(-c3nc4c(Cl)c(F)c(O)cc4s3)cc(C)cc2n1` [Example 291, 4-chloro-5-fluoro-2-(2-(methoxymethyl)-7-methylquinoxalin-5-yl) benzo[d]thiazol-6-ol], 7.96; with `COCc1cnc2c(-c3nc4c(Cl)c(F)c(OCC(=O)OC)cc4s3)cc(C)cc2n1` [Example 292, methyl 2-((4-chloro-5-fluoro-2-(2-(methoxymethyl)-7-methylquinoxalin-5-yl)benzo[d]thiazol-6-yl)oxy)acetate], 9.10.
Regarding `COCc1cnc2c(-c3nc4c(Cl)c(F)c(OCCO)cc4s3)cc(C)cc2n1` [Example 293, 2-((4-chloro-5-fluoro-2-(2-(methoxymethyl)-7-methylquinoxalin-5-yl)benzo[d]thiazol-6-yl)oxy)ethanol], the pIC50 was 9.00.
Consider `COc1cnc2c(-c3nc4c(C)c(F)c(OC)cc4s3)cc(C)cc2n1` [Example 294, 5-fluoro-6-methoxy-2-(2-methoxy-7-methylquinoxalin-5-yl)-4-methylbenzo[d]thiazole], for which the negative-log IC50 (pIC50) was 8.28.
In the case of `COCc1cnc2c(-c3nc4c(C)c(F)c(OC)cc4s3)cc(C)cc2n1` [Example 295, 5-fluoro-6-methoxy-2-(2-(methoxymethyl)-7-methylquinoxalin-5-yl)-4-methylbenzo[d]thiazole], the pIC50 was 9.15.
With `COCc1cnc2c(-c3nc4c(C)c(C)c(OCC(=O)OC)cc4s3)cc(C)cc2n1` [Example 296, methyl 2-((2-(2-(methoxymethyl)-7-methylquinoxalin-5-yl)-4,5-dimethylbenzo[d]thiazol-6-yl)oxy)acetate], the negative logarithm of the IC50 (pIC50) is 8.92.
As to `COCc1cnc2c(-c3nc4c(C)c(C)c(OCCO)cc4s3)cc(C)cc2n1` [Example 297, 2-((2-(2-(methoxymethyl)-7-methylquinoxalin-5-yl)-4,5-dimethylbenzo[d]thiazol-6-yl)oxy)ethanol], the pIC50 is 8.24.
As for `COCc1cnc2c(-c3nc4c(Cl)c(C)c(OC)cc4s3)cc(C)cc2n1` [Example 298, 4-chloro-6-methoxy-2-(2-(methoxymethyl)-7-methylquinoxalin-5-yl)-5-methylbenzo[d]thiazole], the negative logarithm of the IC50 (pIC50) is 8.68.
`COc1cnc2c(-c3nc4c(Cl)c(C)c(OC)cc4s3)cc(C)cc2n1` [Example 299, 4-chloro-6-methoxy-2-(2-methoxy-7-methylquinoxalin-5-yl)-5-methylbenzo[d] thiazole]: the negative-log IC50 (pIC50) was 8.00.
As to `COCc1cnc2c(-c3nc4c(CO)c(C)c(OC)cc4s3)cc(C)cc2n1` [Example 300], the negative logarithm of the IC50 (pIC50) was 9.05.
For `COc1cnc2c(-c3nc4c(CO)c(C)c(OC)cc4s3)cc(C)cc2n1` [Example 301], the negative logarithm of the IC50 (pIC50) is 7.82.
As for `COc1cnc2c(-c3nc4c(C)c(F)c(OCCOC(=O)Nc5ccc(F)nc5)cc4s3)cc(C)cc2n1` [Example 302, 2-((5-fluoro-2-(2-methoxy-7-methylquinoxalin-5-yl)-4-methylbenzo[d]thiazol-6-yl)oxy)ethyl (6-fluoropyridin-3-yl)carbamate], the negative-log IC50 (pIC50) is 8.49.
`COCc1cnc2c(-c3nc4c(C)c(F)c(OCCOC(=O)Nc5ccc(F)nc5)cc4s3)cc(C)cc2n1` [Example 303, 2-((5-fluoro-2-(2-(methoxymethyl)-7-methylquinoxalin-5-yl)-4-methylbenzo[d]thiazol-6-yl)oxy)ethyl (6-fluoropyridin-3-yl) carbamate]: the negative logarithm of the IC50 (pIC50) is 9.05.
In the case of `COc1cnc2c(-c3nc4c(Cl)c(F)c(OCCOC(=O)Nc5ccc(F)nc5)cc4s3)cc(C)cc2n1` [Example 304, 2-((4-chloro-5-fluoro-2-(2-methoxy-7-methylquinoxalin-5-yl)benzo[d]thiazol-6-yl)oxy)ethyl (6-fluoropyridin-3-yl)carbamate], the pIC50 is 8.64.
Regarding `COCc1cnc2c(-c3nc4c(Cl)c(F)c(OCCOC(=O)Nc5ccc(F)nc5)cc4s3)cc(C)cc2n1` [Example 305, 2-((4-chloro-5-fluoro-2-(2-(methoxymethyl)-7-methylquinoxalin-5-yl)benzo[d]thiazol-6-yl)oxy)ethyl (6-fluoropyridin-3-yl)carbamate], the pIC50 is 9.00.
As for `CCOc1cc(C)c2nc(-c3cc(C)cc4nc(COC)cnc34)sc2c1` [Example 306], the figure is 9.00; as for `COCc1cnc2c(-c3nc4c(C)cc(OCc5ccccc5)cc4s3)cc(C)cc2n1` [Example 307, 6-(benzyloxy)-2-(2-(methoxymethyl)-7-methylquinoxalin-5-yl)-4-methylbenzo[d]thiazole], 9.05.
As for `COCc1cnc2c(-c3nc4ccc(CO)cc4s3)cc(C)cc2n1` [Example 308, (2-(2-(methoxymethyl)-7-methylquinoxalin-5-yl)benzo[d]thiazol-6-yl)methanol], the negative-log IC50 (pIC50) was 8.44.
Regarding `COCc1ccc2nc(-c3cc(C)cc4nc(COC)cnc34)sc2c1` [Example 309, 6-(methoxymethyl)-2-(2-(methoxymethyl)-7-methylquinoxalin-5-yl)benzo[d]thiazole], the pIC50 was 8.48.
As for `COCc1cnc2c(-c3nc4cc(O)c(OC)cc4s3)cc(C)cc2n1` [Example 310, 6-methoxy-2-(2-(methoxymethyl)-7-methylquinoxalin-5-yl)benzo[d]thiazol-5-ol], the negative-log IC50 (pIC50) was 8.04.
As for `COCc1cnc2c(-c3nc4cc(OC)c(OC)cc4s3)cc(C)cc2n1` [Example 311, 5,6-dimethoxy-2-(2-(methoxymethyl)-7-methylquinoxalin-5-yl)benzo[d]thiazole], the figure is 7.03.
As for `COCc1cnc2c(-c3nc4cc(CO)c(OC)cc4s3)cc(C)cc2n1` [Example 312, (6-methoxy-2-(2-(methoxymethyl)-7-methylquinoxalin-5-yl)benzo[d]thiazol-5-yl) methanol], the figure is 8.17; as for `COCc1cnc2c(-c3nc4c(OC)c(F)c(Cl)cc4s3)cc(C)cc2n1` [Example 313, 6-chloro-5-fluoro-4-methoxy-2-(2-(methoxymethyl)-7-methylquinoxalin-5-yl) benzo[d]thiazole], 8.54; as for `COCc1cnc2c(-c3nc4c(C5CC5)c(F)c(OC)cc4s3)cc(C)cc2n1` [Example 314, 4-cyclopropyl-5-fluoro-6-methoxy-2-(2-(methoxymethyl)-7-methylquinoxalin-5-yl)benzo[d]thiazole], 8.00.
As for `CCOc1cc2sc(-c3cc(C)cc4nc(OC)cnc34)nc2c(F)c1F` [Example 315, 6-ethoxy-4,5-difluoro-2-(2-methoxy-7-methylquinoxalin-5-yl)benzo[d]thiazole], the figure is 8.48.
For the compound `COc1cnc2c(-c3nc4c(F)c(F)c(OCCNS(=O)(=O)c5cccc(F)c5)cc4s3)cc(C)cc2n1` [Example 316, N-(2-((4,5-difluoro-2-(2-methoxy-7-methylquinoxalin-5-yl)benzo[d]thiazol-6-yl)oxy)ethyl)-3-fluorobenzenesulfonamide], the pIC50 is 8.31.
